Like-named read-outs stand apart in the source and are kept apart here. Each block holds one compound with its values, some of them ahead of it.
How the values were obtained:
[1] = target: T1, recombinant form of Glutaminase 1 (GAC) (Homo sapiens, UniProt O94925); assay: Recombinant Enzyme Assay - Time Dependence (60 min preincubation); type: biochemical
T1 sequence (O94925 137-598 isoform O94925-3 limits assumed): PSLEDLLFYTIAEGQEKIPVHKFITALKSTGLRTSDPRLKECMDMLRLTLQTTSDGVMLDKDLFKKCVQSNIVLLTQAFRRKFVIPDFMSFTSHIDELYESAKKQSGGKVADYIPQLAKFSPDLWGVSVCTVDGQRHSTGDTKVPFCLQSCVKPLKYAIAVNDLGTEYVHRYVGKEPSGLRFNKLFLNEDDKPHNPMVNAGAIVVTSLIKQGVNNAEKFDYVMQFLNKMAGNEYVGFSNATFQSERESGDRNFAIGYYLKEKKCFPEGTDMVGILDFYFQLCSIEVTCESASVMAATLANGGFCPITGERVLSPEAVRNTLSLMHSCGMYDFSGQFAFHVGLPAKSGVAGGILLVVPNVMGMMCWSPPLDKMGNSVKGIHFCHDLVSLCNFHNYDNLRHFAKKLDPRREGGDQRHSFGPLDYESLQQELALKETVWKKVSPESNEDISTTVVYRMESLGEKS
Method: The enzyme/compound mix was sealed with sealing foil (USA Scientific) and allowed to incubate, with mild agitation, for 60 minutes at 20° C. Enzymatic reaction was started with the addition of 50 μL of substrate solution (50 mM Tris-HCl pH 8.0, 0.2 mM EDTA, 150 mM K2HPO4, 0.1 mg/ml BSA, 1 mM DTT, 20 mM L-glutamine, 2 mM NAD^+, and 10 ppm antifoam) and read in a Molecular Devices M5 plate reader at 20° C. The plate reader was configured to read absorbance (=340 nm) in kinetic mode for 15 minutes. Data was recorded as milli-absorbance units per minute and slopes were compared to a control compound and a DMSO-only control on the same plate. Compounds with slopes less than the DMSO control were considered inhibitors and plate variability was assessed using the control compound.

[2] = tested on: P493-6 (myc "on") cells; assay: Cell Proliferation Assay; type: cell-based; details: P493-6, 72 h
Procedure, shortened: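 Read-out: either Cell Titer Glo or Guava Viacount flow analysis after 72 h compound treatment of myc-on P493-6 cells (10,000/well, RPMI with 10% FBS) at 37 °C. DMSO held at 0.5% final.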

[3] = read-out: Cell prolif P493 72 h IC50, P493-6 cells, 72 h
[4] = read-out: GAC Delta N2 IC50 60 min preinc
[5] = read-out: Cell prolif P493 72 h IC50, P493 cells, 72 h

IC50 [1]: 0.004 µM
Compound: CC(NS(C)(=O)=O)c1cccc(CC(=O)Nc2ccc(CCCCc3nnc(NC(=O)Cc4ccccc4)s3)nn2)c1 (stereo not shown) [Compound 626]
IC50 [2, 3]: 0.017 µM

Compound: CC(C)CN(C)C(=O)Cc1cccc(CC(=O)Nc2nnc(CCCCc3ccc(NC(=O)Cc4ccccc4)nn3)s2)c1 [Compound 485]
IC50 [1, 4]: 0.004 µM | IC50 [2, 3]: 0.012 µM

Compound: CC(C)(C)OC(=O)NCc1cccc(CC(=O)Nc2nnc(CCCCc3ccc(NC(=O)C(C)(CO)CO)nn3)s2)c1 [Compound 530]
IC50 [1, 4]: 0.055 µM | IC50 [2, 3]: 0.28 µM

Compound: O=C(Cc1ccc(OC(F)(F)F)cc1)Nc1ccc(CCCCc2nnc(NC(=O)Cc3ccccc3)s2)nn1 [Compound 615]
IC50 [1, 4]: 0.009 µM

Compound: O=C(Cc1cccc(Br)c1)Nc1nnc(CCCCc2nnc(NC(=O)Cc3cccc(Br)c3)s2)s1 [Compound 284]
IC50 [1]: 0.05 µM

Compound: O=C(Cc1cccc(OC(F)(F)F)c1)Nc1ccc(CCCCc2nnc(NC(=O)Cc3cc(F)cc(F)c3)s2)nn1 [Compound 662]
IC50 [1, 4]: 0.007 µM

Compound: O=C(Cc1cccc(OC(F)(F)F)c1)Nc1ccc(CCCCc2nnc(NC(=O)Cc3ccncc3)s2)nn1 [Compound 672]
IC50 [1, 4]: 0.01 µM

Compound: COc1cccc(CC(=O)Nc2nnc(CCCCc3ccc(NC(=O)Cc4cccc(OC(F)(F)F)c4)nn3)s2)c1 [Compound 658]
IC50 [1, 4]: 0.005 µM

Compound: CC(C)(C)OC(=O)NCc1cccc(CC(=O)Nc2nnc(CCCCc3ccc(NC(=O)Cc4cccc(OC(F)(F)F)c4)nn3)s2)c1 [Compound 586]
IC50 [1, 4]: 0.013 µM

Compound: O=C(Cc1cccc(OC(F)(F)F)c1)Nc1ccc(CCCCc2nnc(NC(=O)Cc3cccc(OC(F)F)c3)s2)nn1 [Compound 668]
IC50 [1, 4]: 0.009 µM

Compound: O=C(Cc1cccc(OC(F)(F)F)c1)Nc1ccc(CCCCc2nnc(NC(=O)Cc3cc(F)ccc3F)s2)nn1 [Compound 659]
IC50 [1, 4]: 0.01 µM

Compound: O=C(Cc1cccc(OC(F)(F)F)c1)Nc1ccc(CCCCc2nnc(NC(=O)Cc3ccccc3F)s2)nn1 [Compound 673]
IC50 [1, 4]: 0.006 µM

Compound: CC(C(=O)Nc1nnc(CCCCc2ccc(NC(=O)Cc3cccc(OC(F)(F)F)c3)nn2)s1)c1ccccc1 (stereo not shown) [Compound 636]
IC50 [1, 4]: 0.008 µM

Compound: O=C(Cc1cccc(OC(F)(F)F)c1)Nc1ccc(CCCCc2nnc(NC(=O)Cc3cccc(OCC(F)(F)F)c3)s2)nn1 [Compound 669]
IC50 [1, 4]: 0.021 µM

Compound: CSc1cccc(CC(=O)Nc2nnc(CCCCc3ccc(NC(=O)Cc4cccc(OC(F)(F)F)c4)nn3)s2)c1 [Compound 674]
IC50 [1, 4]: 0.008 µM

Compound: O=C(Nc1nnc(CCCCc2nnc(NC(=O)C(O)c3cccc(Cl)c3)s2)s1)C(O)c1cccc(Cl)c1 (stereo not shown) [Compound 306]
IC50 [2, 5]: 0.066 µM

Compound: CC[C@](O)(C(=O)Nc1nnc(CCCCc2nnc(NC(=O)[C@@](O)(CC)c3ccccc3)s2)s1)c1ccccc1 [Compound 143]
IC50 [2, 5]: 2.2 µM

Compound: O=C(Nc1nnc(CCCCc2nnc(NC(=O)[C@H](O)c3ccccc3)s2)s1)[C@H](O)c1ccccc1 [Compound 80]
IC50 [2, 5]: 1.3 µM

Compound: CC(C(=O)Nc1nnc(CCCCc2ccc(NC(=O)Cc3ccccc3)nn2)s1)c1ccc(F)c(CNC(=O)OC(C)(C)C)c1 (stereo not shown) [Compound 568]
IC50 [2, 3]: 0.028 µM

Compound: O=C(Nc1nnc(CCSCCc2nnc(NC(=O)C3CCCO3)s2)s1)C1CCCO1 (stereo not shown) [Compound 39]
IC50 [2, 5]: 4.5 µM

Compound: O=C(Cc1ccccc1)Nc1nnc(CCSCCc2nnc(NC(=O)Cc3ccccc3)s2)s1 [Compound 1, N,N′-(5,5′-(thiobis(ethane-2,1-diyl))bis(1,3,4-thiadiazole-5,2-diyl))bis(2-phenylacetamide)]
IC50 [2, 5]: 0.47 µM

Compound: CC(C)(C)OC(=O)Nc1ccc(CC(=O)Nc2nnc(CCSCCc3nnc(NC(=O)Cc4ccc(NC(=O)OC(C)(C)C)cc4)s3)s2)cc1 [Compound 185]
IC50 [2, 5]: 0.09 µM

Compound: O=C(Cc1ccccc1)Nc1ccc(CCCCc2nnc(NC(=O)C(O)c3ccc(-c4ccccc4)cc3OCCO)s2)nn1 (stereo not shown) [Compound 504]
IC50 [2, 3]: 0.12 µM

Compound: COc1ccc(Cl)c(CC(=O)Nc2nnc(CCCCc3nnc(NC(=O)Cc4ccccc4)s3)s2)c1F [Compound 343]
IC50 [2, 5]: 0.25 µM

Compound: CN(C)Cc1cccc(CC(=O)Nc2nnc(CCCCc3nnc(NC(=O)Cc4ccccc4)s3)s2)c1 [Compound 394]
IC50 [2, 3]: 1.2 µM

Compound: O=C(Cc1ccccc1)Nc1nnc(CCSCc2nnc(NC(=O)Cc3cccc(Cl)c3)s2)s1 [Compound 372]
IC50 [2, 5]: 0.15 µM

Compound: CCNC(=O)OC(C)c1cccc(CC(=O)Nc2ccc(CCCCc3nnc(NC(=O)Cc4ccccc4)s3)nn2)c1 (stereo not shown) [Compound 610]
IC50 [2, 3]: 0.011 µM

Compound: O=C(Nc1nnc(CCSCCc2nnc(NC(=O)[C@@H](O)c3ccccc3)s2)s1)[C@@H](O)c1ccccc1 [Compound 93]
IC50 [2, 5]: 2 µM

Compound: CC(C(=O)Nc1nnc(CCCCc2ccc(NC(=O)Cc3cccc(CNC(=O)CC(C)(O)C(F)(F)F)c3)nn2)s1)c1ccccc1 (stereo not shown) [Compound 607]
IC50 [2, 3]: 0.047 µM

Compound: COc1ccccc1CC(=O)Nc1nnc(CCCCc2nnc(NC(=O)Cc3ccccc3OC)s2)s1 [Compound 264]
IC50 [2, 5]: 0.01 µM

Compound: CC(C)(C)OC(=O)N1CCN(C(C(=O)Nc2nnc(CCSCCc3nnc(NC(=O)Cc4ccccc4)s3)s2)c2ccccc2)CC1 (stereo not shown) [Compound 70]
IC50 [2, 5]: 3.4 µM

Compound: COc1cc(CC(=O)Nc2ccc(CCCCc3nnc(NC(=O)Cc4ccccc4)s3)nn2)ccc1F [Compound 537]
IC50 [2, 3]: 0.076 µM

Compound: O=C(Cc1cccc(F)c1)Nc1nnc(CCSCCc2nnc(NC(=O)Cc3cccc(F)c3)s2)s1 [Compound 102]
IC50 [2, 5]: 1.4 µM

Compound: O=C(Cc1ccccc1OC(F)(F)F)Nc1ccc(CCCCc2nnc(NC(=O)Cc3ccccc3)s2)nn1 [Compound 614]
IC50 [1, 4]: 0.008 µM

Compound: CCCC(=O)OCN(C(=O)C(CO)c1cccc(CNC(=O)OC(C)(C)C)c1)c1nnc(CCCCc2ccc(NC(=O)Cc3ccccc3)nn2)s1 (stereo not shown) [Compound 567]
IC50 [2, 3]: 0.021 µM

Compound: N[C@H](C(=O)Nc1nnc(CCCCc2nnc(NC(=O)[C@@H](N)c3ccccc3)s2)s1)c1ccccc1 [Compound 187]
IC50 [2, 5]: 21 µM

Compound: O=C(Cc1ccccc1)Nc1ccc(CCCCc2nnc(NC(=O)Cc3cccc4[nH]ncc34)s2)nn1 [Compound 512]
IC50 [2, 3]: 0.046 µM

Compound: N[C@@H](CO)C(=O)Nc1nnc(CCCCc2nnc(NC(=O)[C@@H](N)CO)s2)s1 [Compound 140]
IC50 [2, 5]: > 50 µM

Compound: O=C(Nc1nnc(CCSCCc2nnc(NC(=O)C3COc4ccccc4O3)s2)s1)C1COc2ccccc2O1 (stereo not shown) [Compound 41]
IC50 [2, 5]: 33 µM

Compound: CC(C(=O)Nc1nnc(CCSCCc2nnc(NC(=O)C(C)c3ccccc3)s2)s1)c1ccccc1 (stereo not shown) [Compound 19]
IC50 [2, 5]: 1.7 µM

Compound: CC(C)[C@H](N)C(=O)OCC(C(=O)Nc1nnc(CCCCc2nnc(NC(=O)C(COC(=O)[C@@H](N)C(C)C)c3ccccc3)s2)s1)c1ccccc1 (stereo partly shown) [Compound 291]
IC50 [2, 5]: 1.8 µM

Compound: O=C(Cc1c(F)cccc1F)Nc1nnc(CCCCc2nnc(NC(=O)Cc3c(F)cccc3F)s2)s1 [Compound 293]
IC50 [2, 5]: 0.04 µM

Compound: O=C(Nc1nnc(CCCCc2nnc(NC(=O)[C@H](O)Cc3ccccc3)s2)s1)[C@H](O)Cc1ccccc1 [Compound 169]
IC50 [2, 5]: 3.4 µM

Compound: O=C(Cc1cccs1)Nc1nnc(CCSCCc2nnc(NC(=O)Cc3cccs3)s2)s1 [Compound 116]
IC50 [2, 5]: 0.72 µM

Compound: COc1ccccc1CC(=O)Nc1nnc(CCSCc2nnc(NC(=O)Cc3ccccc3OC)s2)s1 [Compound 249]
IC50 [2, 5]: 0.16 µM

Compound: CC(=O)OCC(=O)Nc1nnc(CCSCCc2nnc(NC(=O)COC(C)=O)s2)s1 [Compound 5]
IC50 [2, 5]: > 50 µM

Compound: CNCc1cccc(CC(=O)Nc2nnc(CCCCc3nnc(NC(=O)Cc4ccccc4)s3)s2)c1 [Compound 393]
IC50 [2, 3]: 0.9 µM

Compound: C=CCCC(=O)Nc1nnc(CCSCCc2nnc(NC(=O)CCC=C)s2)s1 [Compound 18]
IC50 [2, 5]: 8.2 µM

Compound: COc1ccc(CC(=O)Nc2nnc(CCCCc3nnc(NC(=O)Cc4ccc(OC)c(OC)c4)s3)s2)cc1OC [Compound 160]
IC50 [2, 5]: > 50 µM

From patent publication US20150004134A1, “TREATMENT OF CANCER WITH HETEROCYCLIC INHIBITORS OF GLUTAMINASE” (Calithera Biosciences, Inc., priority 2012, published 2015)
